Data as given in BindingDB's records for doi:10.1021/acs.jmedchem.6b00596 (University of Connecticut Health Center, 2016).

Target: Ubiquitin carboxyl-terminal hydrolase 1/WD repeat-containing protein 48 (Homo sapiens, UniProt O94782+Q8TAF3)
Assay: Inhibition of human USP1/UAF1 complex using Ub-Rho as substrate by qHTS assay

Ubiquitin carboxyl-terminal hydrolase 1/WD repeat-containing protein 48, sequence (O94782 whole entry, looked up): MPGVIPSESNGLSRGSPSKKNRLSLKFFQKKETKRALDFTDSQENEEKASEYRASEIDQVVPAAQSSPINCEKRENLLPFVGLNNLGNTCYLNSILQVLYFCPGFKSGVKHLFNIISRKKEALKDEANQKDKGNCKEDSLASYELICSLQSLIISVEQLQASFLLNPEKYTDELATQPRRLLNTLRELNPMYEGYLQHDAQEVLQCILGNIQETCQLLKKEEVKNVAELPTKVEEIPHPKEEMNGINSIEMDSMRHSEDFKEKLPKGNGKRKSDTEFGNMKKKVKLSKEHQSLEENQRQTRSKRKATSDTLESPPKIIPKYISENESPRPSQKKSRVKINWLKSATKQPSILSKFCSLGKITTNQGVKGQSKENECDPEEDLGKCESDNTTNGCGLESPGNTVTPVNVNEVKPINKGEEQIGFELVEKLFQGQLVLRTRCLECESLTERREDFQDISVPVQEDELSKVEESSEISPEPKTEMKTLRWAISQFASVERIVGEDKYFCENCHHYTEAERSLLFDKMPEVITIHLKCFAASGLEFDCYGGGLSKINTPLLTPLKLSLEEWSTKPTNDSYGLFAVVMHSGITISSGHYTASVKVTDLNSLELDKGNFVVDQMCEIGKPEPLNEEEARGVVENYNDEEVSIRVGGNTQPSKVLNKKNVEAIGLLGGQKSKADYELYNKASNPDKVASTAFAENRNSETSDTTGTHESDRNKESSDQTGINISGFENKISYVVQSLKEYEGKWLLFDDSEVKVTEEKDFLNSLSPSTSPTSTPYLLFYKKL
Ubiquitin carboxyl-terminal hydrolase 1/WD repeat-containing protein 48, sequence (Q8TAF3 whole entry, looked up): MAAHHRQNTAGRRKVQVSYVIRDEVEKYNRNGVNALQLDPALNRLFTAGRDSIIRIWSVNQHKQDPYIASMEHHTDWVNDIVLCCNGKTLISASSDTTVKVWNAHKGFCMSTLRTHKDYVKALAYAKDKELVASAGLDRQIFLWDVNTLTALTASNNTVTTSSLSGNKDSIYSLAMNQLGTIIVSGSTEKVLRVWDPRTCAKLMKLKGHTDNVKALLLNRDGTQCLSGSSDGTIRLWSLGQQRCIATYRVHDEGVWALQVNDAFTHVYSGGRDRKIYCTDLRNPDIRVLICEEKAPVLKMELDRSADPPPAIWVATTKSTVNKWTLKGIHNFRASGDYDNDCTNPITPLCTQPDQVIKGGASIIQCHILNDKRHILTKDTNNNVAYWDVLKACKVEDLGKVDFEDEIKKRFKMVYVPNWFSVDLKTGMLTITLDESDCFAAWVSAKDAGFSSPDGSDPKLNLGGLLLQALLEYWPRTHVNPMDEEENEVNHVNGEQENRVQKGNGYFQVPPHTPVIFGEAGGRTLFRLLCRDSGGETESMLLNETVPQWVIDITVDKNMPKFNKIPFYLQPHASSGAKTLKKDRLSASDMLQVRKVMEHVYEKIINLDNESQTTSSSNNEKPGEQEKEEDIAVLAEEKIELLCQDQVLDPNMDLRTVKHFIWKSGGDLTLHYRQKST

An IC50 of 7 µM was found for OCCN1CCN(CC/C=C2/c3ccccc3Sc3ccc(C(F)(F)F)cc32)CC1 [Fluphenthixol] in this work.
